Where a name gives a salt, the structure may show the parent alone.

The values that follow come from US11236122B2, “Triterpene amine derivatives” (DFH THERAPEUTICS, priority 2018, dated 2022).

Holding throughout (assay type): cell-based
Series [1] relates to human PBMCs. Nature of the series: in vitro. The settings on record: 7 days. Here is the method: (§1) Human PBMC Preparation. Fresh human PBMCs were isolated from screened donors, seronegative for HIV and HBV (Biological Specialty Corporation, Colmar, Pa.). Cells were pelleted/washed 2-3 times by low speed centrifugation and resuspension in Dulbecco's phosphate buffered saline (PBS) to remove contaminating platelets. The leukophoresed blood was then diluted 1:1 with PBS and layered over 14 mL of Ficoll-Hypaque density gradient (Lymphocyte Separation Medium, Cell Grow #85-072-CL, density 1.078+/−0.002 g/mL) in a 50 mL centrifuge tube and then centrifuged for 30 min at 600×g. Banded PBMCs were gently aspirated from the resulting interface and subsequently washed twice with PBS by low speed centrifugation. After the final wash, cells were enumerated by trypan blue exclusion and re-suspended at 1×10^6 cells/mL in RPMI 1640 supplemented with 15% Fetal Bovine Serum (FBS), 2 mM L-glutamine, 100 U/mL penicillin, […] streptomycin, and 4 μg/mL Phytohemagglutinin (PHA; Sigma, St. Louis, Mo.; cat #L1668). The cells were allowed to incubate for 48-72 h at 37° C. After incubation, PBMCs were centrifuged and resuspended in RPMI 1640 with 15% FBS, L-glutamine, penicillin, streptomycin, non-essential amino acids (MEM/NEAA; Hyclone; cat #SH30238.01), and 20 U/mL recombinant human IL-2 (R&D Systems Inc., Minneapolis, Minn.; cat #202IL). PBMCs were maintained in this medium at a concentration of 1-2×10^6 cells/mL, with twice-weekly medium changes until they were used in the assay protocol. Monocytes-derived-macrophages were depleted from the culture as the result of adherence to the tissue culture flask.
(§2) PBMC Assay. For the standard PBMC assay, PHA stimulated cells from at least two normal donors were pooled (mixed together), diluted in fresh medium to a final concentration of 1×10^6 cells/mL, and plated in the interior wells of a 96 well round bottom microplate at 50 μL/well (5×10^4 cells/well) in a standard formate developed by the Infectious Disease Research Department of the SRI. Pooling (mixing) of mononuclear cells from more than one donor was used to minimize the variability observed between individual donors, which results from quantitative and qualitative differences in HIV infection and overall response to the PHA and IL-2 of primary lymphocyte populations. Each plate contains virus control wells (cells plus virus) and experimental wells (drug plus cells plus virus). Test drug dilutions were prepared at a 2× concentration in microtiter tubes and 100 μL of each concentration was placed in appropriate wells using the standard format. 50 μL of a predetermined dilution of virus stock was placed in each test well (final MOI≈0.1). Separate plates were prepared identically without virus for drug cytotoxicity studies using an MTS assay system (described below; cytotoxicity plates also include compound control wells containing drug plus media without cells to control for colored compounds that affect the MTS assay). The PBMC cultures were maintained for seven days following infection at 37° C., 5% CO2. After this period, cell-free supernatant samples were collected for analysis of reverse transcriptase activity, and compound cytotoxicity was measured by addition of MTS to the separate cytotoxicity plates for determination of cell viability. Wells were also examined microscopically and any abnormalities were noted.
(§3) MTS Staining for PBMC Viability to Measure Cytotoxicity. At assay termination, the uninfected assay plates were stained with the soluble tetrazolium-based dye MTS (CellTiter 96 Reagent, Promega) to determine cell viability and quantify compound toxicity. MTS is metabolized by the mitochondria enzymes of metabolically active cells to yield a soluble formazan product, allowing the rapid quantitative analysis of cell viability and compound cytotoxicity. […] At termination of the assay, […] of MTS reagent was added per well and the microtiter plates were then incubated at 37° C., 5% CO2 to assess cell viability. […]

A short description of series [2]: in vitro. The settings on record: human. Here is the method: as §1, §2, §3
Series [3] concerns HIV-1 clade C K3016. Nature of the series: CA-SP1 accumulation assay (immunoblot), clade C K3016. As to the method:
Compound evaluation was performed against a panel of HIV-1 Clade C isolates K3016, pindieC1, and ZM247. The three isolates all contain the SP1-A7V. Clade B NL4-3 was included as the […] control.
Plasmids, tissue culture and transfections. HIV-1 clade B molecular clone NL4-3 and cade C clones K3016, ZM247 were obtained from Dr. Christina Ochsenbauer, University of Alabama, USA. Both K3016 and ZM247 were constructed using viral strains from South Africa. The HIV-1 clade C molecular clone pindieC1 was obtained from Dr. Uday Ranga, JNCASR, India. This clone was constructed using an HIV strain from India. HEK-293T and TZM-bl cells were propagated in Dulbecco's modified Eagle's medium (DM4EM) containing 10% fetal bovine serum (FBS). HUT-R5 cells were propagated in RPM 1640 medium supplemented with 10% FBS. For transfections, HEK-293T cells were grown in six well plates to about 80% confluency. Cells were transfected using Lipofectamine 2000 (invitrogen, USA) following manufacturer's recommendations. For viral replication assays, HUT-R5 T-cells were transfected using DEAE dextran as described in Waheed, A. A., Ono, A., and Freed, E. O.; Methods for the study of HIV-1 assembly; Methods Mol. Biol. Clifton N.J. 485, 163-184 (2009).
Preparation of viral stocks. Virus stocks were prepared by transfecting HEK-293T cells with HIV-1 DNAs (3 μg). 24 h post-transfection, the culture medium was replaced with fresh DMEM and incubated for another 2 h. Compounds tested were maintained in the culture throughout transfection. The culture supernatant was centrifuged at 845×g for 3 min to remove cellular debris. The clarified supernatants were filtered (pore size 0.45 µm filter disc) to remove residual cellular contaminants. For determination of viral infectivity, the un-concentrated virus was used to infect TZM-bl cells. For the CA-SP1 accumulation assay, the virus was pelleted by ultra-centrifugation at 210,100×g for 1 h at 4° C. using SW41Ti rotor (Beckman Coulter, USA).
CA-SP1 accumulation assay. To measure accumulation of CA-SP1, immunoblot analysis of virus-associated proteins was performed. The virus pellet was resuspended in radioimmunoprecipitation assay (RIPA) buffer (50 mM Tris-HCl pH 8.0, 150 mM sodium chloride, 1.0% NP-40, 0.5% sodium deoxycholate, 0.1% SDS) containing 1×protease inhibitor cocktail (Roche, Germany). The viral lysates were subjected to SDS-polyacrylamide gel electrophoresis (15% gel). Proteins were transferred to polyvinylidene difluoride membranes and reacted with HIV-IgG obtained from the NIH AIDS Reagent Program (catalog no. 3957) followed by incubation with HRP-conjugated anti-human secondary antibodies (GE Healthcare, UK). The proteins were visualized by enhanced chemiluminescence (Pierce, USA) and the bands were quantified using ImageJ software (http://imagej.nih.gov/ij/).

In series [1], `C=C(C)[C@@H]1CC[C@]2(CCNCCN3CCS(=O)(=O)CC3)CC[C@]3(C)[C@H](CC[C@@H]4[C@@]5(C)CC[C@H](OC(=O)CC(C)(C)C(=O)O)C(C)(C)[C@@H]5CC[C@]43C)[C@@H]12` [Compound 51ee, (3β)-17-[[[2-[2-(1,1-Dioxothiomorpholin-4-yl)]Ethyl]Amino]Ethyl]-28-norlup-20(29)-en-3-ol, 3-(1-Hydrogen 2,2-Dimethylbutanedioate)] returned a CC50 of over 1 µM. The compound also displayed a CC50 at 7 days in series [2] of over 1 µM. Also, in series [3], the “% CA-SP1 Accumulation K3016 10 nM” value was determined as 53.8% and the “% CA-SP1 Accumulation K3016 100 nM” value was 66.4%.

For the compound `C=C(C)[C@@H]1CC[C@]2(CCNCCN3CCN(S(C)(=O)=O)CC3)CC[C@]3(C)[C@H](CC[C@@H]4[C@@]5(C)CC[C@H](OC(=O)CC(C)(C)C(=O)O)C(C)(C)[C@@H]5CC[C@]43C)[C@@H]12` [Compound 51ff, (3β)-17-[2-[[2-[4-(Methylsulfonyl)piperazin-1-yl]ethyl]amino]ethyl]-28-norlup-20(29)-en-3-ol, 3-(1-Hydrogen 2,2-Dimethylbutanedioate)], the cytotoxic concentration (CC50) in series [1] was over 1 µM. In series [2], this compound yielded a CC50 at 7 days of over 1 µM. In series [3], the “% CA-SP1 Accumulation K3016 10 nM” value was 49.8% and the “% CA-SP1 Accumulation K3016 100 nM” value is recorded as 54.4%.

In series [1], `C=C(C)[C@@H]1CC[C@]2(CCNC3CCN(CCO)CC3)CC[C@]3(C)[C@H](CC[C@@H]4[C@@]5(C)CC[C@H](OC(=O)CC(C)(C)CC(=O)O)C(C)(C)[C@@H]5CC[C@]43C)[C@@H]12` [Compound 51f, (3β)-17-[2-[[1-(2-Hydroxyethyl)piperidin-4-yl]amino]ethyl]-28-norlup-20(29)-en-3-ol, 3-(Hydrogen 3,3-Dimethylpentanedioate), Bis(trifluoroacetate) Salt] displayed a CC50 of over 1 µM. The CC50 at 7 days in series [2] was over 1 µM.

As to `C=C(C)[C@@H]1CC[C@]2(CCNCCN3CCN(Cc4ccccc4)CC3)CC[C@]3(C)[C@H](CC[C@@H]4[C@@]5(C)CC[C@H](OC(=O)CC(C)(C)C(=O)O)C(C)(C)[C@@H]5CC[C@]43C)[C@@H]12` [Compound 51hh, (3β)-17-[2-[[2-[4-(Phenylmethyl)piperazin-1-yl]ethyl]amino]ethyl]-28-norlup-20(29)-en-3-ol, 3-(1-Hydrogen 2,2-Dimethylbutanedioate)], the CC50 in series [1] is over 1 µM. In series [2], this compound yielded a CC50 at 7 days of over 1 µM. Moreover, in series [3], the “% CA-SP1 Accumulation K3016 10 nM” value worked out at 35.8% and the “% CA-SP1 Accumulation K3016 100 nM” value is reported as 62.9%.
